Here are results for 106 compounds from ChEMBL document CHEMBL3988442, “University of Dundee, Small-Polar-MMV Screening Library” (2021).

What is called IC50 is the concentration that gives 50% inhibition.

The experiment has as its target Lysine--tRNA ligase (Plasmodium falciparum (isolate 3D7), UniProt Q8IDJ8). Description: Pf-KRS-1 (Lysyl-RNA Synthetase-1, KRS-1, cytosolic KRS) from Plasmodium falciparum. Inhibitor assay, 384 well plate, luminescence read. Format: functional.

Lysine--tRNA ligase, sequence (Q8IDJ8 whole entry): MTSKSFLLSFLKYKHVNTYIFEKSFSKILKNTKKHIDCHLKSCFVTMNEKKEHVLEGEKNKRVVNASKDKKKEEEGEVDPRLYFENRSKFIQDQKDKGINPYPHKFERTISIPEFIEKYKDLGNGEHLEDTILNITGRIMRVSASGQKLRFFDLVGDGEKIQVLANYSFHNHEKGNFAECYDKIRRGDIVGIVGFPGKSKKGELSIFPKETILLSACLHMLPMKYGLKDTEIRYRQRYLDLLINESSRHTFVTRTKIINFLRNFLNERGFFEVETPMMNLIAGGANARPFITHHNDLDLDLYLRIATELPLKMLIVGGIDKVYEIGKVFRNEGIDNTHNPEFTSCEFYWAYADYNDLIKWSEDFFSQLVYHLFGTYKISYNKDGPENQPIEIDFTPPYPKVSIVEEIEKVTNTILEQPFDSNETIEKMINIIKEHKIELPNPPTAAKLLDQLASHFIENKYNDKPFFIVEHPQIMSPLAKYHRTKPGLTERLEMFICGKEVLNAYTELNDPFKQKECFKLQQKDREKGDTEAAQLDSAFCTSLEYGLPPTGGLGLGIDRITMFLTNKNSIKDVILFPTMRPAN

On to `CCc1cc2cc(OC)c(OC)cc2nc1SCCN1CCCCC1`, for which the half-inhibitory concentration (IC50) is > 50.1 µM.
Turning to `CNC(=O)c1ccc2c(c1)C1(CCN(CC(C)C)CC1)C(=O)N2`, the 50% inhibitory concentration (IC50) is > 50.1 µM.
The figure for `O=C(CC1COCCN1)N1CCC(N2CCc3ccccc3C2)CC1` (stereo unspecified) is > 50.1 µM; for `CCCc1ccc(CN2CCN(C(=O)C(C)C)[C@@H]3CS(=O)(=O)C[C@@H]32)o1` it is > 50.1 µM; for `Cc1ccc(CN2CCN(Cc3ccncc3)[C@@H]3CS(=O)(=O)C[C@@H]32)cc1` it is > 50.1 µM.
The figure for `O=c1c(CN2CCCCC2)coc2ccc(Cl)cc12` is > 50.1 µM.
`Cc1cccc2c1nc(CCO)n2-c1ccc(N)nc1`: the 50% inhibitory concentration (IC50) is > 50.1 µM.
The value for `O=C(CCNC(=O)c1ccoc1)Nc1cc(F)ccc1F` was > 50.1 µM.
With `CCCOc1ccc(CNC(=O)N2CCC(C(N)=O)C2)cc1` (stereo unspecified), the half-inhibitory concentration (IC50) is > 50.1 µM.
The value for `NC(=O)c1ccc(CN2C(=O)C3(CCNCC3)Nc3ccccc32)cc1` was > 50.1 µM; that for `Cc1nnc(NCCn2nc(C)c(Cl)c2C)o1` was > 50.1 µM.
The figure for `CCc1nc(C2CCCN2Cc2noc(Cc3ccccc3)n2)no1` (stereo unspecified) is > 50.1 µM; for `COc1c(F)ccc(C(=O)N2CC[C@H](CO)[C@@H](O)C2)c1F` it is > 50.1 µM; for `C/C=C(\C)CN1C[C@H](NC(=O)CCOC)[C@@H](c2ccc(C)o2)C1` it is > 50.1 µM.
The figure for `CCn1cc2c(n1)C(COCC1CC1)CN(C(=O)c1cc(C)on1)C2` (stereo unspecified) is > 50.1 µM.
As for `Cc1ccc(CN2CCCN(Cc3cscn3)CC2)cc1`, the IC50 is > 50.1 µM.
The value for `Cc1cccc2c1CCN(c1cc(N3CCCC3CO)ncn1)C2` (stereo unspecified) was > 50.1 µM; that for `Cc1nnc(NCCC(=O)N(C)Cc2ccccc2)c(C#N)c1C` was > 50.1 µM; that for `Cc1ccc(O)c(CNCC(C)c2nc3ccccc3o2)n1` (stereo unspecified) was > 50.1 µM.
On to `Cc1csc(CNC(=O)N(C)Cc2ccc3c(c2)OCCO3)n1`, for which the IC50 was > 50.1 µM.
The value for `COCc1cc(N(CC(F)F)C2CC2)n2ncnc2n1` was > 50.1 µM; that for `COc1c(C)cnc(CN(C)C(=O)c2ccccc2O)c1C` was > 50.1 µM; that for `Cc1cccc(NC2CCc3c2[nH]c(=O)n(C2CCCCC2)c3=O)c1C` (stereo unspecified) was 2.45 µM.
The figure for `COc1ccc(C(=O)N2CCO[C@H]3[C@@H](OCC4CC4)CC[C@@H]32)cc1F` is > 50.1 µM; for `Clc1snnc1CN1CCCCC1Cn1cncn1` (stereo unspecified) it is > 50.1 µM; for `CC(C)(C)c1cc(CN2CCOC(CCc3ccccc3)C2)n[nH]1` (stereo unspecified) it is > 50.1 µM.
The value for `CO[C@H]1CC[C@H]2[C@H]1OCCN2C(=O)CC1=CCCCC1` was > 50.1 µM; that for `Cc1noc(C)c1CN1CC[C@H]2[C@H]1CCN2CC1CCOCC1` was > 50.1 µM; that for `O=C([C@H]1CCCO1)N1CCc2ncnc(NC3CC3)c2CC1` was > 50.1 µM.
For `O=C1CC(c2ccc(C(=O)O)cc2)c2ncn(-c3cccc(F)c3)c2N1` (stereo unspecified), the 50% inhibitory concentration (IC50) is > 50.1 µM.
Turning to `CN(C)CCn1ccnc1C1CCN(c2cc(N)nc(N)n2)CC1`, the IC50 is > 50.1 µM.
Turning to `Cc1ccc(CS(=O)(=O)NCc2ccco2)cc1`, the IC50 was > 50.1 µM.
The value for `CSc1ncnc(NCc2cccs2)c1C#N` was > 50.1 µM; that for `COc1c(C)cnc(CN(C)C(=O)c2cccnc2N(C)C)c1C` was > 50.1 µM; that for `Cc1ccn2ncc(C(=O)N3CCCC(n4nc(C)nc4C)C3)c2n1` (stereo unspecified) was > 50.1 µM.
The figure for `O=C(O)c1c(-c2ccoc2)ncc2c1CCN(C1CCOC1)C2` (stereo unspecified) is > 50.1 µM; for `c1cc(-c2cn[nH]c2)ncc1CN1CCCCC1` it is > 50.1 µM.
For the compound `COc1ccc(/C=C/CN2C[C@H]3CC[C@@H]2CN(S(=O)(=O)N(C)C)C3)cc1`, the IC50 was > 50.1 µM.
On to `O=C(Nc1cccnc1)[C@H]1C[C@@H]2CCN(c3nncs3)C[C@H]2O1`, for which the concentration for half-maximal inhibition (IC50) is > 50.1 µM.
Consider `O=C(c1cnc(-c2cccs2)s1)N1CCCC(n2cccn2)C1` (stereo unspecified), for which the IC50 is > 50.1 µM.
Take `O=C(C[S+]([O-])Cc1c(Cl)cccc1Cl)N1CCc2sccc2C1` (stereo unspecified): the half-maximal inhibitory concentration (IC50) was > 50.1 µM.
The value for `CN1[C@H](Cn2cncn2)C[C@@H]2CN(Cc3cccc(C#N)c3)CC[C@@H]21` was > 50.1 µM; that for `COc1ccccc1CNc1ccc2nncn2n1` was > 50.1 µM.
The figure for `CCCn1ccnc1CN1CCC(Oc2ccc(Cl)cc2)(C(=O)O)CC1` is > 50.1 µM.
In the case of `Cc1nnc(NCCC(=O)NCc2ccccc2)c(C#N)c1C`, the IC50 was > 50.1 µM.
The value for `Cc1nc(CN2CCCC(N(C)Cc3nc(CC(C)C)no3)C2)no1` (stereo unspecified) was > 50.1 µM.
Turning to `CCN1CC(C(=O)N2CCN(CCn3cccc3)CC2)CC1=O` (stereo unspecified), the half-maximal inhibitory concentration (IC50) was > 50.1 µM.
The figure for `c1cnc(N2CCCC(NCc3ccc(-n4ccnc4)cc3)C2)nc1` (stereo unspecified) is > 50.1 µM; for `Cc1nc(CCC(=O)N2Cc3cnc(-c4ccccc4)nc3C2)n[nH]1` it is > 50.1 µM.
On to `COc1cccc(C(=O)N(C)Cc2ncc(C)c(OC)c2C)c1OC`, for which the IC50 was > 50.1 µM.
As to `Cc1cnc(N2CCN(C)c3ncccc3C2)nc1`, the IC50 is > 50.1 µM.
The figure for `O=c1c(CN2CCOCC2)coc2ccc(Cl)cc12` is > 50.1 µM; for `CC(C)c1nccn1C1CCCN(C(=O)c2cccc3[nH]ncc23)C1` (stereo unspecified) it is > 50.1 µM; for `Cn1c(=O)c2c(n3ncnc13)NC(=O)CC2c1ccc(F)cc1` (stereo unspecified) it is > 50.1 µM.
The value for `Cc1ncc(CN2CCOC(CN(C)c3cccnn3)C2)s1` (stereo unspecified) was > 50.1 µM; that for `Cc1ccc(C2(O)CCN(Cc3nc(C)n4ccccc34)CC2)nc1` was > 50.1 µM.
The figure for `COCCOc1ccc(NC(=O)N2CCCC2c2ccsc2)cn1` (stereo unspecified) is > 50.1 µM; for `COCCCN1CC2(CCCCN2C(=O)C2CCCCC2)CC1=O` (stereo unspecified) it is > 50.1 µM; for `O=C(c1ccc2c(c1)CCCC2)N1CCCC(n2cncn2)C1` (stereo unspecified) it is > 50.1 µM.
Turning to `CCOc1cccc2c1OCC(C(=O)NS(=O)(=O)Cc1ccccc1)=C2`, the half-inhibitory concentration (IC50) is > 50.1 µM.
In the case of `CSCCCN1CCCC(Cn2ccnc2)C1` (stereo unspecified), the IC50 was > 50.1 µM.
The figure for `COc1c(F)cc(-c2cn(CCn3c(C)cc(C)nc3=O)nn2)cc1Cl` is > 50.1 µM; for `C=C(C)Cn1ccc2cc(OC)c(F)cc2c1=O` it is > 50.1 µM.
The figure for `Cc1cccc(OCCCNC(=O)NC(C)c2nncn2C)c1` (stereo unspecified) is > 50.1 µM.
The figure for `O=C1COc2cc(C(=O)NCc3ccc(Cl)s3)ccc2N1` is 17.5 µM.
In the case of `CCOCC1CN(Cc2ccc(OC)cc2)Cc2nn(CC3CC3)cc21` (stereo unspecified), the IC50 was > 50.1 µM.
The figure for `CC(NC(=O)NCCOc1ccc(Cl)cc1)c1nncn1C` (stereo unspecified) is > 50.1 µM.
In the case of `CN1C(=O)CC2(CCN(S(=O)(=O)C3CC3)CC2)c2ccccc21`, the IC50 was > 50.1 µM.
In the case of `O=C(CCNC(=O)c1ccoc1)Nc1cc(F)cc(F)c1`, the IC50 was > 50.1 µM.
The value for `CC(=O)c1cnc(N(C)Cc2cc(C)cc(C)n2)nc1C` was > 50.1 µM.
The figure for `Cc1ccc(-n2nnc(C(=O)NCC3CCCCC3)n2)cc1` is > 50.1 µM; for `CC(O)(CNc1ccc(Cl)c(C#N)n1)c1ccsc1` (stereo unspecified) it is 44 µM; for `O=C(O)c1cc(-c2ccncc2F)cc(S(=O)(=O)N2CCCCCC2)c1` it is > 50.1 µM.
The figure for `CS(=O)(=O)c1ccc(CNC(=O)N2CCC(C(N)=O)C2)cc1` (stereo unspecified) is > 50.1 µM; for `Cc1nnc(CN2CCCC(CCc3ccccc3C(F)(F)F)C2)o1` (stereo unspecified) it is > 50.1 µM; for `COc1ccc(-n2nnc(C(=O)NCC3CCCCC3)n2)cc1` it is > 50.1 µM.
Turning to `CCc1nc(CN2CCOC(CN(CC)c3cccnn3)C2)cs1` (stereo unspecified), the IC50 was > 50.1 µM.
Regarding `O=c1ccc2c(n1Cc1cccnc1)CCC(NCc1cccnc1)C2` (stereo unspecified), the half-maximal inhibitory concentration (IC50) is > 50.1 µM.
The figure for `O=c1[nH]c2c(c(=O)n1C1CCCCC1)CCC2NCCc1ccccc1` (stereo unspecified) is 1.75 µM; for `CCN1CCC(N2CCN(c3cc(-c4nc(C)no4)ccn3)CC2)CC1` it is > 50.1 µM; for `Cc1nc[nH]c1CN1CCn2nc(CN3CC[C@H](F)C3)cc2C1` it is > 50.1 µM.
The value for `CCCS(=O)(=O)N1CCOC2(COCCN(C(C)=O)C2)C1` (stereo unspecified) was > 50.1 µM.
The figure for `O=C(NCC1CCC1)c1ccnc(-n2ccnc2)c1` is > 50.1 µM; for `Cn1cc(C(C)(O)CNc2ccc(Cl)c(C#N)n2)cn1` (stereo unspecified) it is > 50.1 µM; for `COCC1CN(C(=O)Cc2ccccn2)Cc2ncn(C)c21` (stereo unspecified) it is > 50.1 µM.
With `O=C(Cc1ccc(Cl)s1)Nc1ccc2c(c1)C(=O)NC2=O`, the IC50 is > 50.1 µM.
As for `c1ccc(CCN2CCCC(Cn3ccnc3)C2)cc1` (stereo unspecified), the IC50 was > 50.1 µM.
The value for `Cc1cnn(CCCN2C(=O)CCc3ccccc32)c1` was > 50.1 µM.
With `Cc1ccc(N2CC[C@H](OCC3CC3)[C@@H]2Cc2cnn(C)c2)nn1`, the IC50 is > 50.1 µM.
As for `CCn1ncc2c1CCCC2NCc1ccc(OC)c(C)c1` (stereo unspecified), the IC50 was > 50.1 µM.
With `O=C(NCc1csc(Br)c1)c1cnccn1`, the 50% inhibitory concentration (IC50) was > 50.1 µM.
For `CCOc1ccc(CC(CNC(=O)c2ccc(C)o2)C(N)=O)cc1` (stereo unspecified), the half-maximal inhibitory concentration (IC50) is > 50.1 µM.
For `CC1(C)CCN1C(=O)c1cc(F)cc2[nH]cnc12`, the IC50 was > 50.1 µM.
The figure for `Cc1nn(C)c(C)c1NC(=O)CN1CCOC(Cn2cccn2)C1` (stereo unspecified) is > 50.1 µM.
The value for `Cc1nc(CN2CCCC(CCc3ccccc3C(F)(F)F)C2)co1` (stereo unspecified) was > 50.1 µM; that for `Cc1csc(CNC(=O)NCc2ccc3c(c2)OCCO3)n1` was > 50.1 µM.
The value for `Cc1cc(C)c2c(NCC3(O)CCCCC3)ncnc2n1` was > 50.1 µM; that for `CCN(C)C(=O)c1cc(-c2ccn(C(C)C)n2)n2ccccc12` was > 50.1 µM.
For `Fc1cccc(CN2CCN(Cc3cscn3)CC2)c1`, the IC50 is > 50.1 µM.
The value for `COCCOc1ccccc1C(=O)N(C)Cc1ncc(C)c(OC)c1C` was > 50.1 µM; that for `FC(F)(F)COCCN1CCc2cncnc2C1` was > 50.1 µM; that for `COc1ccccc1N1CCC(N2CCOCC(CO)C2)CC1` (stereo unspecified) was > 50.1 µM.
Consider `COc1cc(C2CC(=O)Nc3c2nc2n3CCCC2)cc(OC)c1O` (stereo unspecified), for which the IC50 is > 50.1 µM.
In the case of `O=c1[nH]c2c(c(=O)n1C1CCCCC1)CCC2Nc1ccccn1` (stereo unspecified), the IC50 was > 50.1 µM.
The value for `CC(=O)N1CC(=O)N(c2ccsc2)CC12CCN(Cc1ccccn1)C2` (stereo unspecified) was > 50.1 µM.
The value for `COc1ccc(OC)c(C(=O)N(C)Cc2ncc(C)c(OC)c2C)c1` was > 50.1 µM.
